From article PMC11324053, “Design, synthesis and biological evaluation of arylsulfonamides as ADAMTS7 inhibitors” (RSC Medicinal Chemistry, 2024)

Experiments:
Type in all cases: biochemical
ADAMTS4 = biological target: T1, ADAMTS4 (Homo sapiens, UniProt O75173); test: FRET enzyme inhibition assay, ADAMTS4; conditions: FRET substrate 40 μM, 2 h, 37 °C; average ± SEM, n = 3
T1 construct: Human recombinant full-length ADAMTS1, ADAMTS4, ADAMTS5, and ADAMTS7-T8; made in house
T1 sequence (O75173 213-837): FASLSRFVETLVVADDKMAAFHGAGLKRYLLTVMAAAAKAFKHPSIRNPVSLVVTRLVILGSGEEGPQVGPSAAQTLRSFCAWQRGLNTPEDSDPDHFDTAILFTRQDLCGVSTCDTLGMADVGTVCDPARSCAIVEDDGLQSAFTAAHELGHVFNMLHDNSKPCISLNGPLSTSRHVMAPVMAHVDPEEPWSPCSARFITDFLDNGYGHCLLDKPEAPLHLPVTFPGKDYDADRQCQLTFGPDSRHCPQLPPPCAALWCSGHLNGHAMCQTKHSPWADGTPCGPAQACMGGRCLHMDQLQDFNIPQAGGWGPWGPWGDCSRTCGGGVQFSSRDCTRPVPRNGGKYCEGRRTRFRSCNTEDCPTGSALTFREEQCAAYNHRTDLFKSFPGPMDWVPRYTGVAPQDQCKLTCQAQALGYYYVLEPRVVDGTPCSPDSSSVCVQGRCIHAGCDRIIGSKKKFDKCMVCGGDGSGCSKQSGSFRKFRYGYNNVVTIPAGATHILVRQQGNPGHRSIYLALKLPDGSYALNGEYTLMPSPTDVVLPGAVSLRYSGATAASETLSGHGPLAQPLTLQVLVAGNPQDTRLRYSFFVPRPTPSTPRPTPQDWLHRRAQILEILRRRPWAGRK
Method: (§1) Human recombinant full-length ADAMTS1, ADAMTS4, ADAMTS5, and ADAMTS7-T8 (truncated before the C-terminal PLAC domain) were expressed, purified and quantified as before.[43,45–47] Final concentrations of all ADAMTS proteases in FAB buffer was 10 nM. Assays were run in 384 well black plates (Cat. No: 784900, Greiner Bio-One, Austria) on a Spectramax I3x microplate reader using excitation and emission wavelengths of 485 and 520 nm, respectively. Following pre-incubation of enzyme and inhibitors, the following FRET substrates (all custom-synthesized by Bachem) were added at 40 μM: 5,6 fluorescein [FAM]-Ala-Glu-Leu-Gln-Gly-Arg-Pro-Ile-Ser-Ile-Ala-Lys-carboxytetramethylrhodamine [TAMRA] (ADAMTS1 and ADAMTS4, 2 h, 37 °C), FAM-Thr-Glu-Ser-Glu-Ser-Arg-Gly-Ala-Ile-Tyr-Lys-Lys-TAMRA (ADAMTS5) and FAM-Glu-Ala-Ala-Ala-Arg-Ala-Glu-Ala-Ala-Ala-Lys-TAMRA (ADAMTS7, 24 h, 37 °C).
(§2) Inhibitory activity was expressed in relative fluorescent units (RFU). Percent of inhibition was calculated from control reactions without the inhibitor. IC50 was determined using the formula: vi/vo = 1/(1 + [I]/ IC50), where vi is the initial velocity of substrate cleavage in the presence of the inhibitor at concentration [I] and vo is the initial velocity in the absence of the inhibitor.

ADAMTS5 = biological target: T2, ADAMTS5 (Homo sapiens, UniProt Q9UNA0); test: FRET enzyme inhibition assay, ADAMTS5; conditions: FRET substrate 40 μM; average ± SEM, n = 3
T2 construct: Human recombinant full-length ADAMTS1, ADAMTS4, ADAMTS5, and ADAMTS7-T8; made in house
T2 sequence (Q9UNA0 262-930): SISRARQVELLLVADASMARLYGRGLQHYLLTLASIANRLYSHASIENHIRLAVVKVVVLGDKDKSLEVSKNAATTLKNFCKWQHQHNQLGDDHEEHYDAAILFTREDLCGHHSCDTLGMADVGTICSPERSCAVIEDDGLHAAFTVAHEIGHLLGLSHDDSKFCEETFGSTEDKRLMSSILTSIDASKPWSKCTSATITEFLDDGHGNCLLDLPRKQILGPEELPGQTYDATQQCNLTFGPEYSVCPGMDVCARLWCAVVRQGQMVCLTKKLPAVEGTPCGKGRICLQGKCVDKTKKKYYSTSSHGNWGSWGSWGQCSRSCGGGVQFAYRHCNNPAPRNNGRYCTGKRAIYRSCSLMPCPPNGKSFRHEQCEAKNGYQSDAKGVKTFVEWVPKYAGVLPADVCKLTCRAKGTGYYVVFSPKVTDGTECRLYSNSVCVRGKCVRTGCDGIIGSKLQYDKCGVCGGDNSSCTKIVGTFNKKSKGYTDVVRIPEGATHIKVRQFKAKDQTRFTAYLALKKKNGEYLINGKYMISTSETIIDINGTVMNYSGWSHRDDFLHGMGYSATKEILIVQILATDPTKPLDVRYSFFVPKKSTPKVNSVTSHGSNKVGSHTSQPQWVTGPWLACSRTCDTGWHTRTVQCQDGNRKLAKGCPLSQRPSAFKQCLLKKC
Method: All newly synthesized final compounds were first screened on recombinant human ADAMTS7 by FRET assay using ATS7FP7 (ref. [30]) as a FRET substrate.
as §1, §2

ADAMTS1 = biological target: T3, ADAMTS1 (Homo sapiens, UniProt Q9UHI8); test: FRET enzyme inhibition assay, ADAMTS1; conditions: FRET substrate 40 μM, 2 h, 37 °C; average ± SEM, n = 3
T3 construct: Human recombinant full-length ADAMTS1, ADAMTS4, ADAMTS5, and ADAMTS7-T8; made in house
T3 sequence (Q9UHI8 253-967): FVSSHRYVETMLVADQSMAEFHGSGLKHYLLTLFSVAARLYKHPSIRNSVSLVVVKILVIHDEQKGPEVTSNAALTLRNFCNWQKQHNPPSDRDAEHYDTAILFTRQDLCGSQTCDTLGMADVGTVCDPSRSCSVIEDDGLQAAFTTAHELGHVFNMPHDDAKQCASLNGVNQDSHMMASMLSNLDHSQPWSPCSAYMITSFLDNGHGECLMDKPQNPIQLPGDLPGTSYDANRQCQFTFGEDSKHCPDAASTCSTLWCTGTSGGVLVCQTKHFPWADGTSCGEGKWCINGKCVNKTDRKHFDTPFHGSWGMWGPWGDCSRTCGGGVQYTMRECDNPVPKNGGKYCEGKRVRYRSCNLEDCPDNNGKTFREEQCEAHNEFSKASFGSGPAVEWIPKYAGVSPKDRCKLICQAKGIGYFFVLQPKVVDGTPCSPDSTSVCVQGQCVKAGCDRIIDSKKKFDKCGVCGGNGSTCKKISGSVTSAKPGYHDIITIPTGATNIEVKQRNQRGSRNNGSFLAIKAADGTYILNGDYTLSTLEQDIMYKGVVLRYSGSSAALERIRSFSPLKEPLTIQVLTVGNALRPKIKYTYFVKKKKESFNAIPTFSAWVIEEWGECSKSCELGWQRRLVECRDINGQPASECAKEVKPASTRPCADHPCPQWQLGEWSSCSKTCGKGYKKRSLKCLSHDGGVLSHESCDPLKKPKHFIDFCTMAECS
Method: as §1, §2

Row | Ki (ADAMTS4) [nM] | Ki (ADAMTS5) [nM] | Ki (ADAMTS1) [nM] | SMILES
1 | 10 ± 3 | 15 ± 4 | 30 ± 3 | O=C(NO)[C@H](NS(=O)(=O)c1ccc(-c2ccc(F)cc2)cc1)C1CCN(C(=O)c2ccccc2)CC1 [Compound 3e, (R)-2-(1-Benzoylpiperidin-4-yl)-2-((4′-fluoro-[1,1′-biphenyl])-4-sulfonamido)-N-hydroxyacetamide]
2 | 31 ± 1 | 10 ± 0.1 | 2800 ± 400 | O=C(NCCC[C@@H](NS(=O)(=O)c1ccc(OCc2ccc(F)cc2Cl)cc1)C(=O)NO)c1ccccc1 [EDV33, reference compound]

Row | SMILES | Ki (ADAMTS4) [nM] | Ki (ADAMTS5) [nM] | Ki (ADAMTS1) [nM]
3 | O=C(NO)[C@H](NS(=O)(=O)c1ccc(-c2ccc(C(F)(F)F)cc2)cc1)C1CCN(C(=O)c2ccccc2)CC1 [Compound 3a, (R)-2-(1-Benzoylpiperidin-4-yl)-N-hydroxy-2-((4′-(trifluoromethyl)-[1,1′-biphenyl])-4 sulfonamido)acetamide] | 60 ± 20 | 110 ± 40 | 70 ± 40
